Results published in ChEMBL document CHEMBL2073801, “Chlorpyrifos oxon interacts with the mammalian multidrug resistance protein, P-glycoprotein” (J Toxicol Environ Health, 1996).
“Also recorded” adds a separate entry of the source.

Legend:
[1] = molecular target: Multidrug resistance protein 1a (Rattus norvegicus) (UniProt Q6PSM0); experiment: TP_TRANSPORTER: Immunohistochemisty in vivo, kidney of Fischer 344 rat; assay type: functional, organism-based
[2] = molecular target: Multidrug resistance protein 1a (Rattus norvegicus) (UniProt Q6PSM0); experiment: TP_TRANSPORTER: Immunohistochemisty in vivo, adrenals of Fischer 344 rat; assay type: functional, organism-based; details: Adrenal tissue
[3] = molecular target: Multidrug resistance protein 1a (Rattus norvegicus) (UniProt Q6PSM0); experiment: TP_TRANSPORTER: Immunohistochemisty in vivo, liver of Fischer 344 rat; assay type: functional, organism-based
[4] = molecular target: ATP-dependent translocase ABCB1 (Homo sapiens, UniProt P08183); experiment: TP_TRANSPORTER: ATP hydrolysis in MDR1-expressing Sf9 cells; assay type: functional
[5] = molecular target: Multidrug resistance protein 1a (Rattus norvegicus) (UniProt Q6PSM0); experiment: TP_TRANSPORTER: Immunohistochemisty in vivo, jejunum of Fischer 344 rat; assay type: functional, organism-based
[6] = molecular target: Multidrug resistance protein 1a (Rattus norvegicus) (UniProt Q6PSM0); experiment: TP_TRANSPORTER: Immunohistochemisty in vivo, stomach of Fischer 344 rat; assay type: functional, organism-based

Multidrug resistance protein 1a (Rattus norvegicus), sequence (Q6PSM0 as listed by the source): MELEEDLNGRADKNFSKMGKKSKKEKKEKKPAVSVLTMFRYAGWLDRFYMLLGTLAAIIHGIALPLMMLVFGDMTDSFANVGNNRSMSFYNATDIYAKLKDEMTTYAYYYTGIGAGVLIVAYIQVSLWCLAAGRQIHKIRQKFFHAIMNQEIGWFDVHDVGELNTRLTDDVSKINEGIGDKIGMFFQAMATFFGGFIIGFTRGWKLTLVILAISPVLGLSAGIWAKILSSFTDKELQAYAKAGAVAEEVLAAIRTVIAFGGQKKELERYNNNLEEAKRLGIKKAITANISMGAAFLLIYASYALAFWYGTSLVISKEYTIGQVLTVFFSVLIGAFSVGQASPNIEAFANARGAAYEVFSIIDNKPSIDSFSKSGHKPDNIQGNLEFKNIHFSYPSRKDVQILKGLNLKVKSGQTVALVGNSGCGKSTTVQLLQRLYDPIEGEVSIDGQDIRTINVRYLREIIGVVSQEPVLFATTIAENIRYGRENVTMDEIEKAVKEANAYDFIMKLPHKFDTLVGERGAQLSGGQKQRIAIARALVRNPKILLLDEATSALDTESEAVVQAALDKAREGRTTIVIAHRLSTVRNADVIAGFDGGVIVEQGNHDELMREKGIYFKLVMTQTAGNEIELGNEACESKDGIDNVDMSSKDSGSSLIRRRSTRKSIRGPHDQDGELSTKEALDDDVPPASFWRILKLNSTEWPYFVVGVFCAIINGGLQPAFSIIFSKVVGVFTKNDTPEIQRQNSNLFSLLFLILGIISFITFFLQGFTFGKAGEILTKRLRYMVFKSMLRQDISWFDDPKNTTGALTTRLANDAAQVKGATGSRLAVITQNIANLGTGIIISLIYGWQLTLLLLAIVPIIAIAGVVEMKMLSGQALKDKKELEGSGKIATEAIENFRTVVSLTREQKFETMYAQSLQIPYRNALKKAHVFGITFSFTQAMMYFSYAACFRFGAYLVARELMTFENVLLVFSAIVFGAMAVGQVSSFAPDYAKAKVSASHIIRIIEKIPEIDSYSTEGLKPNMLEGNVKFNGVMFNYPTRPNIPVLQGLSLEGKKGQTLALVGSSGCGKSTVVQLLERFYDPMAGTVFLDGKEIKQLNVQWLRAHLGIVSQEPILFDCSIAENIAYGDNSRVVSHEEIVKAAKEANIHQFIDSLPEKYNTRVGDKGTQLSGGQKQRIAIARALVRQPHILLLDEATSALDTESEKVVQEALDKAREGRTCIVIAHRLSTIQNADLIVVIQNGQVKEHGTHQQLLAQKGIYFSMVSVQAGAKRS
ATP-dependent translocase ABCB1, sequence (P08183 whole entry): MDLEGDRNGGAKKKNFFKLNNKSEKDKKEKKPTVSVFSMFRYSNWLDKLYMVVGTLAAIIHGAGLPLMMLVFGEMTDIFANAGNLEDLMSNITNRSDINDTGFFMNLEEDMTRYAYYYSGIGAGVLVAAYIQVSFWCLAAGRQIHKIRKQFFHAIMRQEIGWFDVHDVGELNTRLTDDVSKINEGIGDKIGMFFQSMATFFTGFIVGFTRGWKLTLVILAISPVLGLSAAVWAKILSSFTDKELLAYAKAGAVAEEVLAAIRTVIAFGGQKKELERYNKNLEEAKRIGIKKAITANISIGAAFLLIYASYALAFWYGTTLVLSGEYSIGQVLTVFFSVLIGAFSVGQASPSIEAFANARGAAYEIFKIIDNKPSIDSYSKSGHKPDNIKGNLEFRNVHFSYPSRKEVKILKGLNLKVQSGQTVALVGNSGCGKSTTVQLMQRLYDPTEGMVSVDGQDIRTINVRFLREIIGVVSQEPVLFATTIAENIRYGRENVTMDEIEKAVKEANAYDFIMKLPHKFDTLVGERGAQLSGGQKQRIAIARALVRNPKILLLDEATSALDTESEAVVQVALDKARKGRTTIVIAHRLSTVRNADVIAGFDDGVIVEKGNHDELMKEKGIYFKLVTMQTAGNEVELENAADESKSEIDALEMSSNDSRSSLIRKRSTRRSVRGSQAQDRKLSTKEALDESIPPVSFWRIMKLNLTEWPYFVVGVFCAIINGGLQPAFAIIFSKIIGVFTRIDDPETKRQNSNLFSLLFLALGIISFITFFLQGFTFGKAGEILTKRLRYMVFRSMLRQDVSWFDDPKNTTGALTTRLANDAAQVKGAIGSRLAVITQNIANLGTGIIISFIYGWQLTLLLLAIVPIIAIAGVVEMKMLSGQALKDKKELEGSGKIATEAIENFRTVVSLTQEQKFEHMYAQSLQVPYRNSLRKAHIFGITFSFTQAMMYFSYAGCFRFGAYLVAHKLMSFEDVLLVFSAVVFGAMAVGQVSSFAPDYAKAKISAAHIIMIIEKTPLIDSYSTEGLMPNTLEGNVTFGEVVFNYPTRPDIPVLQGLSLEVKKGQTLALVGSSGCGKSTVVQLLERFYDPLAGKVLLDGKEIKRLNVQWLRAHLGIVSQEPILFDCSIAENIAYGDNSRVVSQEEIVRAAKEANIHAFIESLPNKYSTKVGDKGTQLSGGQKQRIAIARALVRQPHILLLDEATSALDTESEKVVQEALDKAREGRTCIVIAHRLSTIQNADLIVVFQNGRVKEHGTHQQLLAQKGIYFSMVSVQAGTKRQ

In the case of `CCOP(=S)(OCC)Oc1nc(Cl)c(Cl)cc1Cl` [CHLORPYRIFOS], the Activity [1] is reported as “inducer [+]”, the Activity [2] is reported as “inducer [+]” and the Activity [3] is reported as “inducer [+]”. The Activity [4] was “substrate [+]; also recorded: is not a substrate [-]”, the Activity [5] was “inducer [+]” and the Activity [6] was “inducer [+]”.
